# Results from PMC7369893, “Antimicrobial Peptides Display Strong Synergy with Vancomycin Against Vancomycin-Resistant E. faecium, S. aureus, and Wild-Type E. coli” (International Journal of Molecular Sciences, 2020).
# Read-outs that look alike come from different tables or passages of the source. Non-standard residues stand in square brackets, D forms with d. Residues, ends and D or L forms follow the SMILES beside them. Dip = N[C@H](C(=O)O)C(c1ccccc1)c1ccccc1
# How the values were obtained:
# [1] = test system: E. faecium BCRC 15B0132 (VRE); experiment: Time killing assay; format: cell-based, Enterococcus faecium; conditions: 5 × 10^5 CFU/mL, 1 × MIC, 0.5-24 h, 37 °C, triplicate
# Method: (§1) The bactericidal activities of vancomycin, P-113, Phe-P-113, Bip-P-113, Dip-P-113, and Nal-P-113 against E. faecium BCRC 15B0132 (VRE) and E. coli ATCC 25922 were assessed by the time-kill analysis. The cells were grown overnight in TSB or MHB at 37 °C with shaking, and then fresh TSB or MHB was inoculated for growth to mid-logarithmic phase. Bacteria (5 × 10^5 CFU/mL) were treated with 1 × MIC vancomycin, P-113, Phe-P-113, Bip-P-113, Dip-P-113, and Nal-P-113 for 0.5, 1, 2, 4, 6, 10, and 24 h at 37 °C. Bacteria without peptides and vancomycin served as a control. Aliquots were removed at each time points, and 10-fold serial dilutions of the aliquot were plated onto the Müller-Hinton agar. The numbers of CFU were counted after 24 h of incubation at 37 °C. The detection limit for the colony counts was 2log10 CFU/mL.
# [2] = test system: E. coli ATCC 25922; experiment: Uptake of BODIPY-labeled vancomycin, confocal laser scanning microscopy; format: cell-based, Escherichia coli; conditions: E. coli 10^7 CFU/mL, 0.5 ×MIC peptide 30 min at 37 °C, then BODIPY-labeled vancomycin (2 μg/mL) 30 min; mean fluorescence intensity
# Method: (§2) The fluorescence experiments were performed with slight modification as described previously. Briefly, the bacteria (10^7 CFU/mL) were incubated with 0.5 ×MIC antimicrobial peptides for 30 min and then treated with BODIPY-labeled vancomycin (2 μg/mL) for 30 min. Samples treated with BODIPY-labeled vancomycin only served as a control. After incubation, bacteria were centrifuged at 8000× g for 5 min, washed three times with PBS to remove unbinding fluorescence dye, and resuspended by PBS. The resuspended solution were loaded on the glass slides (Polysine™, Thermo Fisher Scientific, Waltham, MA, USA) and visualized under confocal laser scanning microscope (LSM 510 META, Carl Zeiss, Jena, Thüringen, Germany) equipped with a 64× oil objective lens (Carl Zeiss, Jena, Thüringen, Germany).
# [3] = test system: E. faecium BCRC 15B0132; experiment: as above; format: cell-based, Enterococcus faecium; conditions: VRE 10^7 CFU/mL, 0.5 ×MIC peptide 30 min at 37 °C, then BODIPY-labeled vancomycin (2 μg/mL) 30 min; mean fluorescence intensity
# Method: as §2
# [4] = test system: Vancomycin-resistant S. aureus 01 (VRSA01); experiment: microbe, parasite or virus in culture; format: cell-based, Staphylococcus aureus; conditions: 16 h
# Method: (§3) For the purpose of inducing vancomycin-resistant Staphylococcus aureus (VRSA), the VISA01, VISA02, and VISA03 bacteria were incubated overnight in culture medium, and transferring 50 µL of bacteria to 5 mL of fresh medium containing 2 μg/mL of vancomycin then incubated overnight. The bacteria were transferred to new tube with doubling vancomycin concentration and then incubated overnight again. The concentration of vancomycin during serial passage was 2, 4, 8, 16, and 32 µg/mL. The procedure was repeated until meeting the final concentration of 32 µg/mL. After serial passage, the cell resistance was confirmed by using an MIC assay.
# (§4) The antibacterial activities of peptides were determined by the standard broth microdilution method according to the guidelines of the Clinical and Laboratory Standards Institute (CLSI). Briefly, E. coli ATCC 25922 were incubated in MHB, and E. faecium BCRC 15B0132, VISA and VRSA strains were incubated in TSB overnight at 37 °C. The cell cultures were regrown to the mid-log phase and subsequently diluted to a final concentration of 5 × 10^5 CFU/mL. The 1 µL peptides or antibiotic were loaded into each well at the final concentration of 64, 32, 16, 8, 4, 2, 1, and 0.5 µg/mL, then loaded 99 µL diluted microbes into each well of polypropylene 96-well plate. After 16 h of incubation at 37 °C, the turbidity at OD600 was measured by the microplate reader. The minimal inhibitory concentration (MIC) value was defined as the lowest concentration of peptide or antibiotic, which inhibited the 90% visible growth of bacteria. All experiments were repeated three times independently.
# [5] = test system: Vancomycin-resistant S. aureus 02 (VRSA02); experiment: microbe, parasite or virus in culture; format: cell-based, Staphylococcus aureus; conditions: 16 h
# Method: as §3, §4
# [6] = test system: Vancomycin-resistant S. aureus 03 (VRSA03); experiment: microbe, parasite or virus in culture; format: cell-based, Staphylococcus aureus; conditions: 16 h
# Method: as §3, §4
# [7] = test system: Vancomycin-intermediate S. aureus 02 (VISA02); experiment: microbe, parasite or virus in culture; format: cell-based, Staphylococcus aureus
# Method: as §4
# [8] = test system: Vancomycin-intermediate S. aureus 01 (VISA01); experiment: microbe, parasite or virus in culture; format: cell-based, Staphylococcus aureus
# Method: as §4
# [9] = test system: Vancomycin-intermediate S. aureus 03 (VISA03); experiment: microbe, parasite or virus in culture; format: cell-based, Staphylococcus aureus
# Method: as §4
# [10] = test system: E. coli ATCC 25922; experiment: microbe, parasite or virus in culture; format: cell-based, Escherichia coli
# Method: as §4
# [11] = test system: human fibroblasts (HFW); conditions: peptide >25 µg/mL; cited from earlier work
# [12] = test system: VRE, VISA, VRSA and E. coli strains; experiment: Checkerboard assay, summary statements of the text over the strain panel; format: cell-based; conditions: peptide at ¼ ×MIC combined with vancomycin, all strains studied
# Method: The synergistic effects of peptides in combination with vancomycin were investigated by checkerboard assay with slight modification. The peptides were fixed concentration at ¼ × MIC, then in combination with antibiotics at various concentrations in each well of 96-well plate. Then the peptide/antibiotic were mixed with inoculum (5 × 10^5 CFU/mL) and incubated at 37 °C for 16 h. The fractional inhibitory concentration (FIC) index was calculated as follows: FIC index = (MIC of drug A in combination/MIC of drug A alone) + (MIC of drug B in combination/MIC of drug B alone). An FIC index of ≤ 0.5 was defined as synergy, indifference was defined as an FIC index of 0.5 < FICI ≤ 4, antagonism was defined as an FIC index of > 4. The experiments were performed in triplicate.
# [13] = POPC:POPG (3:1, mol/mol) and POPC:LPS (4:1, mol/mol) LUVs; cited from earlier work
# Text: Dathe and coauthors used POPC:LPS as model prokaryotic membranes to study peptide activity against E. coli and the role of LPS [20]. Previously, we have evaluated the membrane-permeability of P-113 and its derivatives by measuring the release of calcein from various phospholipid vesicles such as POPC:POPG (3:1, mol/mol) LUVs (mimic the anionic bacterial membrane) and POPC:LPS (4:1, mol/mol) LUVs (served as surrogates of Gram-negative bacterial membranes that contain LPS). […] Nal- ...
# [14] = test system: E. faecium BCRC 15B0132 (VRE); experiment: microbe, parasite or virus in culture; format: cell-based, Enterococcus faecium
# Method: as §4
# [15] = test system: E. coli ATCC 25922; experiment: Time killing assay; format: cell-based, Escherichia coli; conditions: E. coli ATCC 25922, 5 × 10^5 CFU/mL, 1 × MIC, 0.5-24 h, 37 °C; triplicate
# Method: as §1
# [16] = test system: VRE, VISA, VRSA, and E. coli strains; experiment: microbe, parasite or virus in culture; format: cell-based; conditions: for MICs against these bacterial strains: 16 h; for MIC: Staphylococcus aureus
# Method: as §4
# [17] = VRSA01 (induced from VISA01 by serial passage), CLSI broth microdilution, TSB, 5 × 10^5 CFU/mL, 37 °C, triplicate
# [18] = VRSA02 (induced from VISA02 by serial passage), CLSI broth microdilution, TSB, 5 × 10^5 CFU/mL, 37 °C, triplicate
# [19] = VRSA03 (induced from VISA03 by serial passage), CLSI broth microdilution, TSB, 5 × 10^5 CFU/mL, 37 °C, triplicate
# [20] = Vancomycin-intermediate 02 (VISA02, 16 h)
# [21] = Vancomycin-intermediate 01 (VISA01, 16 h)
# [22] = Vancomycin-intermediate 03 (VISA03, 16 h)
SMILES,killing kinetics [1],entry of BODIPY-labeled vancomycin into the bacteria (rank order) [2],entry of BODIPY-labeled vancomycin into the bacteria (rank order) [3],"MIC [4, 17]","MIC [5, 18]","MIC [6, 19]","MIC [7, 20]","MIC [8, 21]","MIC [9, 22]","MIC ([10]; ATCC 25922, 16 h)",synergy with vancomycin (interpretation of FICI) [12],calcein leakage from LUVs [13],"MIC ([14]; BCRC 15, 16 h)",killing kinetics [15],MICs against these bacterial strains [16],further results
CC(=O)N[C@@H](C)C(=O)N[C@@H](CCCCN)C(=O)N[C@@H](CCCNC(=N)N)C(=O)N[C@H](C(=O)N[C@H](C(=O)NCC(=O)N[C@@H](Cc1ccc(O)cc1)C(=O)N[C@@H](CCCCN)C(=O)N[C@@H](CCCNC(=N)N)C(=O)N[C@@H](CCCCN)C(=O)N[C@@H](Cc1ccccc1)C(=O)N[C@H](C(N)=O)C(c1ccccc1)c1ccccc1)C(c1ccccc1)c1ccccc1)C(c1ccccc1)c1ccccc1 [Dip-P-113] (Ac-AKR[Dip][Dip]GYKRKF[Dip]-NH2),rapid bactericidal activity,Bip-P-113 > Nal-P-113 > Dip-P-113 > Phe-P-113 = P-113,Bip-P-113 = Nal-P-113 > Dip-P-113 > Phe-P-113 = P-113,32 µg/mL,32 µg/mL,32 µg/mL,16 µg/mL,16 µg/mL,16 µg/mL,64 µg/mL,"synergistic effects against VRE, VRSA 02, and E. coli",dose-dependent calcein leakage,4 µg/mL,–,–,cell death (MTT) [11]: 10–20%
CC(=O)N[C@@H](C)C(=O)N[C@@H](CCCCN)C(=O)N[C@@H](CCCNC(=N)N)C(=O)N[C@@H](Cc1c[nH]cn1)C(=O)N[C@@H](Cc1c[nH]cn1)C(=O)NCC(=O)N[C@@H](Cc1ccc(O)cc1)C(=O)N[C@@H](CCCCN)C(=O)N[C@@H](CCCNC(=N)N)C(=O)N[C@@H](CCCCN)C(=O)N[C@@H](Cc1ccccc1)C(=O)N[C@@H](Cc1c[nH]cn1)C(N)=O [P-113] (Ac-AKRHHGYKRKFH-NH2),slower or limited killing kinetics,Bip-P-113 > Nal-P-113 > Dip-P-113 > Phe-P-113 = P-113,Bip-P-113 = Nal-P-113 > Dip-P-113 > Phe-P-113 = P-113,>64 µg/mL,>64 µg/mL,>64 µg/mL,>64 µg/mL,>64 µg/mL,>64 µg/mL,>64 µg/mL,no synergy,only weak abilities in causing calcein leakage,>64 µg/mL,limited bactericidal activity,> 64 µg/mL,–
CC(=O)N[C@@H](C)C(=O)N[C@@H](CCCCN)C(=O)N[C@@H](CCCNC(=N)N)C(=O)N[C@@H](Cc1ccccc1)C(=O)N[C@@H](Cc1ccccc1)C(=O)NCC(=O)N[C@@H](Cc1ccc(O)cc1)C(=O)N[C@@H](CCCCN)C(=O)N[C@@H](CCCNC(=N)N)C(=O)N[C@@H](CCCCN)C(=O)N[C@@H](Cc1ccccc1)C(=O)N[C@@H](Cc1ccccc1)C(N)=O [Phe-P-113] (Ac-AKRFFGYKRKFF-NH2),slower or limited killing kinetics,Bip-P-113 > Nal-P-113 > Dip-P-113 > Phe-P-113 = P-113,Bip-P-113 = Nal-P-113 > Dip-P-113 > Phe-P-113 = P-113,>64 µg/mL,>64 µg/mL,>64 µg/mL,>64 µg/mL,>64 µg/mL,>64 µg/mL,>64 µg/mL,no synergy,only weak abilities in causing calcein leakage,>64 µg/mL,limited bactericidal activity,> 64 µg/mL,–
CN[C@H](CC(C)C)C(=O)N[C@H]1C(=O)N[C@@H](CC(N)=O)C(=O)N[C@H]2C(=O)N[C@H]3C(=O)N[C@H](C(=O)N[C@H](C(=O)O)c4cc(O)cc(O)c4-c4cc3ccc4O)[C@H](O)c3ccc(c(Cl)c3)Oc3cc2cc(c3O[C@@H]2O[C@H](CO)[C@@H](O)[C@H](O)[C@H]2O[C@H]2C[C@](C)(N)[C@H](O)[C@H](C)O2)Oc2ccc(cc2Cl)[C@H]1O [Vancomycin],slower or limited killing kinetics,–,–,–,–,–,–,–,–,–,–,–,–,limited bactericidal activity,–,"MIC ([4]; Staphylococcus aureus): 32 µg/mL; MIC ([5]; Staphylococcus aureus): 32 µg/mL; MIC ([6]; Staphylococcus aureus): 32 µg/mL; MIC ([7]; Staphylococcus aureus, 16 h): 4 µg/mL; MIC ([8]; Staphylococcus aureus, 16 h): 4 µg/mL; MIC ([9]; Staphylococcus aureus, 16 h): 4 µg/mL; MIC ([10]; E. coli ATCC 25922, CLSI broth microdilution, MHB, 5 × 10^5 CFU/mL, 16 h, 37 °C, OD600, 90% growth inhibition, triplicate): > 64 µg/mL; MIC ([10]; Escherichia coli, ATCC25922, 16 h): > 64 µg/mL; MIC ([16]; read-out: MIC against VISA strains): 4 µg/mL; MIC ([16]; read-out: MIC against VRSA strains): 32 µg/mL; MIC ([14]; E. faecium BCRC 15B0132 (VRE), CLSI broth microdilution, TSB, 5 × 10^5 CFU/mL, 16 h, 37 °C, OD600, 90% growth inhibition, triplicate): 64 µg/mL; MIC ([14]; Enterococcus faecium, VRE, 16 h): 64 µg/mL"
